Our source for the melting point values is a melting point compilation (Tetko et al.; mined from patent text by program, amines drawn as free bases though some values may be those of a salt).

For the molecule `CCOC(=O)c1cn(C2CC2)c2c(F)c(N3CC(CNC(C)=O)C3)c(F)cc2c1=O`, the melting point is 170 to 190 °C.

`C#CC[C@H](c1nc2cc(Cl)ccc2c(=O)n1Nc1ccccc1)N(CCCNC(=O)OCc1ccccc1)C(=O)c1cccc(Cl)c1F` returned a melting point of 103 to 105 °C.

`CCOC(=O)Cc1oc(-n2cnc3ccccc32)nc1-c1ccc(Cl)cc1` gave a melting point of 152 to 153 °C.

`CS(=O)(=O)Nc1ccc(C(O)(C(F)(F)F)C(F)(F)F)cc1` yielded a melting point of 137 to 139 °C.

Turning to `C=CCN(CCC)S(=O)(=O)NC(=O)c1cc(N)c(F)cc1Cl`, the melting point was in the range of 104 to 106 °C.

As to `CCOC(=O)COc1cc(-n2nc(C)n(C(F)F)c2=O)c(Cl)cc1Cl`, the melting point was in the range of 118 to 119 °C.

Molecule `C(=C\c1ccc2c(c1)COC(N[C@@H]1CCc3ccccc31)=N2)/c1ccccc1` showed a melting point of 162 °C.

`CCCCCCN1CC(C(=O)OC)N(S(=O)(=O)c2ccc(-c3ccc(Br)cc3)cc2)CC1=O` (stereo unspecified) displayed a melting point of 127 to 129 °C.

Consider `CS(=O)(=O)O[C@@H]1C[C@@H](C(N)=O)N(C(=O)OCc2ccc([N+](=O)[O-])cc2)C1`, for which the melting point lay in the range of 150 to 151 °C.

`COc1cc(CNc2nc(N)n3nc(-c4ccco4)nc3n2)cc(OC)c1OC` yielded a melting point of 221 to 224 °C.

`O=c1cc(CO)oc2cc(O)ccc12` had a melting point of 250 to 252 °C.

In the case of `CCN(CC)CCNC(=O)c1cc(Cl)c(N)cc1OCCC(C)O` (stereo unspecified), the melting point lay in the range of 136 to 138 °C.

For the molecule `N#Cc1ccccc1N1CCN(CNC(=O)c2cccc(Cl)c2)CC1`, the melting point was in the range of 143 to 146 °C.

Molecule `COc1ccc(S(=O)(=O)N(CC(N)=O)c2ccc(F)cc2C(O)c2ccccc2Cl)cc1OC` (stereo unspecified) returned a melting point of 232 °C.

For `c1csc(-c2nc3ccc(N4CCC(N5CCCC5)CC4)nn3c2-c2ccncc2)c1`, the melting point came to 85 °C.

`O=C(Nc1ccc(Oc2ccccc2)cc1)N1CCN(c2ccnc3c(Cl)cccc23)CC1`: the melting point was in the range of 174 to 175 °C.

As to `CN(C)C=Cc1nc2ccc(F)cc2c(=O)n1-c1cccnc1Cl`, the melting point was in the range of 197 to 200 °C.

Turning to `CCOC(=O)/C(=C\Nc1cc(OC)ccc1OC)c1ccccc1`, the melting point fell in the range of 93 to 94 °C.

As to `O=C(NC(=O)c1c(F)cccc1F)Nc1cc(Cl)cc(C(F)(F)F)c1F`, the melting point lay within 187 to 189 °C.

Turning to `CC(C)(CCC(=O)N[C@H](Cc1ccccc1)C(=O)NCCCCNC(=N)N)C(=O)O`, the melting point turned out to be 169 °C.

`O=C(O)c1ccc(C(=O)N(Cc2ccccc2)S(=O)(=O)c2ccc(Br)cc2)cc1` gave a melting point of 193 to 194 °C.

Take `Cc1oc(C=Cc2cccc(Cl)c2)nc1C(=O)O`: the melting point was 213 to 214 °C.

`Cc1cc(Cl)cc(C(=O)NC(C)C)c1NC(=O)c1cc(Br)nn1N1C=CC=C(Cl)C1` had a melting point of 159 to 161 °C.

The molecule `O=C(Nc1ccc(C[C@H](NS(=O)(=O)N2CCCCC2)C(=O)O)cc1)c1c(Cl)cncc1Cl` came in with a melting point of 208 °C.

Regarding `N#Cc1c(N2CCc3ccccc3CC2)nc(C2CC2)[nH]c1=O`, the melting point was more than 200 °C.

Molecule `Nc1cn(-c2cncc(F)c2)nc1Br` showed a melting point of 164 to 165 °C.

As to `N#CCC(=O)Nc1ccc(-n2nc(C(F)(F)F)cc2C(F)(F)F)cc1`, the melting point is 140 to 143 °C.

`O=C(O)C(=O)c1ccc(C(=O)NCCOc2ccc3ccccc3c2)cc1` yielded a melting point of 173 to 175 °C.

In turn, `COc1ccc(CCOc2ccnc(-c3cccc(C(=O)O)c3)n2)cc1OC` came in with a melting point of 193 to 194 °C.

Molecule `CC12CCC(C(=Cc3ccc(OCCO)cc3)C1=O)C2(C)C` (stereo unspecified) returned a melting point of 68 °C.

`CCCCN1CCC(COC(=O)c2cc(Cl)c(N)cc2OC)C(O)C1` (stereo unspecified) returned a melting point of 121 °C.

Turning to `CON=C(C(=O)N[C@@H]1C(=O)N[C@@H]1C(=O)N(C)C)c1csc(NC(=O)CCl)n1` (relative stereo), the melting point fell in the range of 160 to 165 °C.

With `CCCC1=C(Cl)C(=O)c2oc(Cc3ccc(OC)c(Cl)c3)c(C)c2C1=O`, the melting point lay within 134 to 136 °C.

The molecule `N#Cc1cc([N+](=O)[O-])ccc1N1CCN(Cc2ccccc2)CC1` came in with a melting point of 124 °C.

Molecule `O=C(c1cc([N+](=O)[O-])ccc1Cl)c1sccc1Cl` returned a melting point of 114 to 116 °C.

As to `OCCCCCCOc1ccc2ccccc2c1`, the melting point was in the range of 53 to 56 °C.

Take `CCCN(C)CCOc1ccc(-n2ccc(OCc3ccc(Cl)cn3)cc2=O)cc1`: the melting point was 119 to 123 °C.

`BrCCCc1ncnn1C(c1ccccc1)(c1ccccc1)c1ccccc1` had a melting point of 146 to 149 °C.

In turn, `CC(=O)Oc1ccc(-c2c3ccccc3cc3sc(C)c(C)c23)cc1` yielded a melting point of 147 to 150 °C.

In turn, `C=CC12CCc3cc(O)ccc3C1CCC1(C)C(O)CCC12` (stereo unspecified) displayed a melting point of 149 to 151 °C.

Take `Cc1nc(-c2ccc(C(=O)O)s2)no1`: the melting point is 218 to 220 °C.

`CC(=O)C1Oc2cc3c(cc2O1)=NC(F)(F)N=3`: the melting point is more than 220 °C.

The molecule `Cc1c(C)c(N2CCN(Cc3ccccc3)CC2)c(C)c2c1OC(C)(C)C2(O)c1ccc(F)nc1` (stereo unspecified) came in with a melting point of 105 to 109 °C.

Turning to `O=C(O)CN1C(=O)[C@@H](N[C@@H](CCC2CCCCC2)C(=O)O)COc2ccccc21`, the melting point was 202 to 205 °C.

In turn, `N#CCC(=O)Nc1ccc(OCc2cccc(F)c2)cc1` came in with a melting point of 164 to 166 °C.

As to `COc1cc2c(cc1OC)CN(CCCCc1ccc(NC(=O)c3cccc4c(=O)c5cccc(C)c5[nH]c34)cc1)CC2`, the melting point amounted to 140 °C.

For `Cn1ncnc1COc1nn2c(-c3ccccc3F)nncc2c1-c1cc(F)cc(F)c1`, the melting point lay within 171 to 173 °C.

The molecule `CCCn1c(COCC)nc2c(N)nc3ccc(OC4CCN(S(C)(=O)=O)CC4)cc3c21` registered a melting point of 240 to 244 °C.

`CN1CCC(c2ccccc2)(N2CCCC2)C(O)C1` (stereo unspecified) showed a melting point of 149 to 151 °C.

`COc1ccc2ccccc2c1C(=O)/C=C/c1ncn(C(c2ccccc2)(c2ccccc2)c2ccccc2)c1C` registered a melting point of 220 to 222 °C.

In turn, `CCCC12CCC(=O)C=C1c1c(cc(CCC(=O)O)c(Cl)c1Cl)C2` (stereo unspecified) had a melting point of 201 to 203 °C.

In the case of `CNC(=O)N(O)Cc1cccc(Nc2ccccc2C(=O)OC)c1C`, the melting point lay within 173 to 175 °C.

`COc1ccc(C(=O)c2cccc(C(=O)O)c2)c(O)c1`: the melting point was 229 to 236 °C.

With `CCOC(=O)C(=NOCC(C)C)c1csc(N)n1`, the melting point is 122 to 124 °C.

Molecule `CCN(CC)CCN(CC)C(=O)c1ccccc1Nc1ccnc2c(C(F)(F)F)cccc12` gave a melting point of 112 to 113 °C.

Regarding `CCC(C)(C)c1ccc2nc(-c3ccc([N+](=O)[O-])cc3)oc2c1`, the melting point is 147 to 148 °C.

The molecule `CCOc1cc(C(CC#N)N2C(=O)c3ccc4ccccc4c3C2=O)ccc1OC` (stereo unspecified) yielded a melting point of 163 to 165 °C.

Molecule `COC(=O)c1ccc(NC(=O)C(N)c2ccc3c(c2)C(C)(C)CCC3(C)C)n1C` (stereo unspecified) displayed a melting point of 143 to 144 °C.

Molecule `NC(=O)C(=O)Nc1nc(-c2cc3ccccc3oc2=O)cs1` returned a melting point of 297 to 300 °C.

`CCCc1c(OCC(=O)O)ccc(C(C)=O)c1O`: the melting point is 128 to 130 °C.

In turn, `O=C(O)Cc1cc(C=Cc2ccc(C(=O)O)cc2)ccc1O` displayed a melting point of more than 260 °C.

The molecule `O=C(CC1CCNCC1)c1ccc(N2CCCC2)cc1` returned a melting point of 144 to 145 °C.

Regarding `Cc1ccc(-c2cnc(N)c(C(=O)Nc3cccnc3)n2)cc1C`, the melting point is 178 to 182 °C.

Turning to `CCn1nccc1Nc1cc(OC)ccc1C(=O)O`, the melting point was 130 to 135 °C.

For the molecule `CC(=O)NCc1c(C)cc(CN2CCN(c3ccccc3)CC2)cc1C`, the melting point lay in the range of 159 to 160 °C.

`O=C(NCc1ccc(F)cc1)c1cccc(C(=O)NCc2ccc(F)cc2)c1` registered a melting point of 190 to 191 °C.

Regarding `COc1ccccc1-n1c(=O)[nH]c2c(C(N)=O)nc(-c3ccncc3)nc21`, the melting point lay in the range of 318 to 320 °C.

Regarding `C[C@@H](C(=O)O)N(C)C(=O)c1cc(C(F)(F)F)cc([N+](=O)[O-])c1N`, the melting point worked out at 136 °C.

Consider `COc1nc(O)cc(=O)n1C`, for which the melting point was in the range of 170 to 171 °C.

Molecule `CCn1c(N(C)C)nc2cc(C(F)(F)F)c(Cl)c([N+](=O)[O-])c21` yielded a melting point of 121 to 122 °C.

Molecule `NC(=O)[C@H]1CN2C(=O)N(c3cc(Cl)cc(Cl)c3)C(=O)[C@]2(Cc2ccc(OC(F)(F)F)cc2)C1` showed a melting point of 123 °C.

`O=C1NC(=O)C(=Cc2ccc3c(c2)CN(c2ccccn2)CCO3)S1` registered a melting point of 260 to 261 °C.

Consider `CCOC(=O)c1sc(-c2ccccc2)nc1O`, for which the melting point was in the range of 114 to 116 °C.

As for `CCOC(=O)C(Cc1ccccc1)NC(=O)N1CCc2cc(S(=O)(=O)N3CCN(c4cccc(Cl)c4)CC3)ccc21` (stereo unspecified), the melting point is 123 to 124 °C.

The molecule `COc1ccc2ccc(N3C(=O)c4ccccc4C3OCC(=O)N(C)C)nc2n1` (stereo unspecified) gave a melting point of 166 °C.

`CCC(=O)NS(=O)(=O)c1cccc(-c2cc(-c3nc(-c4ccc(C(F)(F)F)cc4)cc(C(F)(F)F)n3)ccn2)c1` gave a melting point of 144 °C.

`CCOC(=O)c1[nH]c2cc(Cl)c(Cl)cc2c1-c1ccccc1` yielded a melting point of 201 to 202 °C.

Molecule `Clc1ncccc1-c1cccnc1` had a melting point of 92 to 93.5 °C.

Molecule `CS(=O)(=O)OCCCc1ccc(OCc2coc(/C=C/c3ccccc3)n2)cc1` showed a melting point of 111 to 112 °C.

`COc1ccc(NC(=O)c2ccc(Cl)c(Cl)c2)cc1Nc1cccc(C(F)(F)F)c1` displayed a melting point of 151 to 152 °C.

`COc1cc(O)c2c(=O)c(OC)c(-c3ccc(OCc4ccccc4)c(OC)c3)oc2c1` had a melting point of 156 to 157 °C.

With `CCOC(=O)n1c(=O)n(CCN2CCN(c3ccccc3OC)CC2)c(=O)c2sccc21`, the melting point was 121 to 122 °C.

Consider `CCNC(=O)C1=C(OC(C)C)c2cc(OC)ccc2S1=O` (stereo unspecified), for which the melting point is 88 to 90 °C.

In the case of `CCN(C(=O)n1occc1=O)c1ccc(Cl)cc1`, the melting point turned out to be 149 °C.

Molecule `COc1ccc(Oc2ccc3c(c2)SC(c2ccc(OC)cc2)C(O)C(=O)N3)cc1` (stereo unspecified) returned a melting point of 213 to 214 °C.

In the case of `O=C(Nc1ccc(Cl)c(Cl)c1)c1c(O)c2ccccc2oc1=O`, the melting point lay within 227 to 228 °C.
